Source: article PMC7062083, “Metabolite identification, tissue distribution, excretion and preclinical pharmacokinetic studies of ET-26-HCl, a new analogue of etomidate” (Royal Society Open Science, 2020)
Where “and” joins values, the source holds several entries; their conditions need not be identical. Identical values can stand only once.

How the values were obtained:
[1] = Metabolic stability in rat liver microsomes; format: in vitro ADME
Protocol: (§1) Samples were analysed by LC–MS/MS as mentioned above.2.1 CLint, in vitro=0.693/t1/2/Cprotein, 2.2 CLint, in vivo=CLint, in vitro×Houston×LW/1000 2.3 andCLhep in vivo=HBF × fu ×CLint, in vivo/HBF + fu ×CLint, in vivo. Where Cprotein is microsomal protein concentration (mg ml^−1); Houston is Houston factor (45 mg of microsomal protein g^−1 liver); LW is liver weight (g) (per species); HBF is hepatic blood flow (ml min^−1) (per species); fu (two places) and later is unbound fraction (fu = 1 − %protein binding).

[2] = Metabolic stability in dog liver microsomes; format: in vitro ADME; conditions: for half-life: pH 7.4
Protocol: as §1

[3] = Identification of major metabolites in liver microsomes (UPLC-Q-TOF-MS); format: in vitro ADME, mouse, rat, beagle dog, monkey and human; conditions: 10 µM ET-26-HCl, 1 mg ml^−1 liver microsomes, NADPH, 1 h
Protocol: The major metabolites of ET-26-HCl in liver microsomes from mouse, rat, beagle dog, monkey and human were determined by the UPLC-Q-TOF-MS system.
Reaction mixture containing 10 µM ET-26-HCl, […] MgCl2 and 1 mg ml^−1 liver microsomes in Tris-HCl phosphate buffer (pH 7.4) was pre-incubated for 6 min at 37°C, followed by the addition of NADPH. After incubation for 1 h, methanol was added to stop the reaction. Samples were centrifuged at 11 000 r.p.m. for 5 min; supernatants were collected and air dried at 40°C. Residues were dissolved in 100 µl acetonitrile/water (1:1, v/v) and analysed by the UPLC-Q-TOF-MS.
The UPLC-Q-OF-MS system was equipped with a Waters Synapt G2-Si quadrupole time-of-flight mass spectrometer (Q-TOF-MS), an ESI source and an ACQUITY UPLC H-CLASS liquid chromatography system. The chromatographic separations were achieved on an ACQUITY UPLC BEH C18 column (2.1 × 100 mm, i.d. 1.7 µm, Waters, USA) kept at 45°C and a flow rate of 0.4 ml min^−1. The mobile phase consisted of 5 mM ammonium acetate with 0.1% formic acid (A) and acetonitrile with 0.1% formic acid (B). The optimized gradient elution programme followed was 0 min to 2.1 min, A/B (19/1, v/v); 2.1 min to 7.3 min, A/B (1/4, v/v); 7.3 min to 8.0 min, A/B (1/9, v/v); and 8.0 min to 10 min, A/B (19/1, v/v). The injection volume was 5 µl. The mass experiment was operated in positive ion modes under the following parameters: turbo spray temperature, 120°C; ion spray voltage, 3.0 kV. Nitrogen was used as the nebulizer and the auxiliary gas; meanwhile, the nebulizer gas was set to 650 l h^−1 and kept at 350°C. The collision energy was set at 5–10 V and the collision energy spread was 4–6 V. TOF-MS was scanned with the mass range of m/z 50–600 with 200 ms accumulation time. A 400 ng ml^−1 leu-enkephalin (m/z 556.2771) was selected as an external standard for mass–charge ratio correction at a flow rate of 5 µl min^−1.

[4] = Stability in beagle plasma (LC-MS/MS); format: in vitro ADME
Protocol: Concentrations of ET-26-HCl and ET-26-acid in biological samples were determined by liquid chromatography–tandem mass spectrometry (LC–MS/MS) after deproteinization with methanol. The bioanalytical method for simultaneous quantification of ET-26-HCl and ET-26-acid in the different matrix was fully validated according to FDA guidelines (electronic supplementary material, figure S1 and tables S1 and S2) in our previous study. Briefly, a 100 µl sample (plasma, tissue homogenate, bile, urine and faeces suspension) were spiked with 20 µl of IS solution and vortexed for 30 s. The mixture was then processed for protein precipitation with 300 µl methanol, followed by centrifugation at 12 000 r.p.m. for 5 min. Supernatant was collected and analysed by LC–MS/MS system.

[5] = set-up: method as in earlier work; conditions: rat; ref results of the drug effect in the early stage of the cooperation laboratory; cited from earlier work
[6] = dog liver microsomes, Cprotein 0.33 mg ml^−1

## COCCOC(=O)c1cncn1[C@H](C)c1ccccc1.Cl [ET-26-HCl, (R)-2-methoxyethyl1-(1-phenylethyl)-1H-imidazole-5-carboxylate hydrochloride]
[1]; rat liver microsomes
  CLint, in vitro: 984 ml min g^−1 protein
  metabolic stability (in words): not metabolically stable
[1]; rat liver microsomes, Cprotein 0.33 mg ml^−1
  CLint, in vitro: 984 ± 68.6 ml min^−1 g^−1 protein
[1]; rat, assumed body weight 0.25 kg (printed order)
  extrapolated hepatic clearance normalized to body weight: 1.78 L·h/kg
[1]; rat, from liver microsomes
  extrapolated CLhep in vivo: 19.1 mL/min and 19.1 ± 0.1 mL/min
  extrapolated CLint, in vivo: 443 ± 30.9 mL/min
[2]; beagle, dog liver microsomes, Cprotein 0.33 mg ml^−1
  half-life: < 5 min
[2]; dog liver microsomes
  CLint, in vitro: 466 ml min g^−1 protein
  metabolic stability (in words): not metabolically stable
[2]; [6]
  CLint, in vitro: 466 ± 12.3 ml min^−1 g^−1 protein
  half-life: 4.5 ± 0.1 min
[2]; dog, assumed body weight 10 kg (printed order)
  extrapolated hepatic clearance normalized to body weight: 4.58 L·h/kg
[2]; dog, from liver microsomes
  extrapolated CLhep in vivo: 296 mL/min and 296 ± 0.35 mL/min
  extrapolated CLint, in vivo: 6712 ± 117 mL/min
[3]
  source (liver microsomes) in which detected: human and dog
[3]; listed as M0
  source (liver microsomes) in which detected: human, dog
[4]; 4◦C for 3 h, nominal 44.92 ng/mL
  Measured concentration (Mean ± SD): 48.79 ± 3.275 ng/mL
[4]; 4◦C for 3 h, nominal 3743 ng/mL
  Measured concentration (Mean ± SD): 3977 ± 294.1 ng/mL
[4]; Freeze and Thaw Cycle (3), nominal 44.92 ng/mL
  Measured concentration (Mean ± SD): 47.75 ± 3.427 ng/mL
[4]; Freeze and Thaw Cycle (3), nominal 3743 ng/mL
  Measured concentration (Mean ± SD): 3722 ± 240.3 ng/mL
[4]; Room temperature 3 h, nominal 44.92 ng/mL
  Measured concentration (Mean ± SD): 47.91 ± 4.952 ng/mL
[4]; Room temperature 3 h, nominal 3743 ng/mL
  Measured concentration (Mean ± SD): 3599 ± 136.1 ng/mL
[4]; –80 ◦C for 30 days, nominal 44.92 ng/mL
  Measured concentration (Mean ± SD): 44.67 ± 4.795 ng/mL
[4]; –80 ◦C for 30 days, nominal 3743 ng/mL
  Measured concentration (Mean ± SD): 3989 ± 229.1 ng/mL
[5]
  ED50: 2.1 mg/kg
